Values quoted from earlier work as cited in patent EP1133548B2, “DETERGENT COMPOSITIONS IN TABLET FORM” (UNILEVER PLC, priority 1998, dated 2000).

Settings: 20°C; grams of solid to form a saturated solution in 100 grams of water

| Water Solubility (g/100g) | Structure (SMILES) |
| --- | --- |
| 15 | O=P(O)(O)OP(=O)(O)OP(=O)(O)O [Sodium tripolyphosphate anhydrous] |
| >100 | NC(N)=O [Urea] |

| Structure (SMILES) | Water Solubility (g/100g) |
| --- | --- |
| O=BO[O-].[Na+] [Sodium perborate anhydrous] | 3.7 |
